Test results from PubChem BioAssay (NCI).
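Test compounds were applied to cells in 96-well plates for 48 hours at 5 doses. GI50 is the concentration that inhibits growth by half. The concentration for full growth arrest is given as TGI.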

Tests used:
Test in all cases: NCI anticancer screen, dose series, 48 h
[1] = test system: A498 renal
[2] = test system: CCRF-CEM leukemia
[3] = test system: K-562 leukemia
[4] = test system: OVCAR-3 ovarian
[5] = test system: SK-MEL-5 melanoma
[6] = test system: SR leukemia
[7] = test system: TK-10 renal
[8] = test system: MDA-MB-435

Structure (SMILES)	GI50 [1]	TGI [1]	GI50 [2]	TGI [2]	GI50 [3]	TGI [3]	GI50 [4]	TGI [4]	GI50 [5]	TGI [5]	GI50 [6]	TGI [6]	GI50 [7]	TGI [7]	GI50 [8]	TGI [8]
CC1=CC[C@@H]2C(=O)C=CC=C[C@H]12.[C-]#[O+].[C-]#[O+].[C-]#[O+].[Fe]	> 100 µM	> 100 µM	> 100 µM	> 100 µM	> 100 µM	> 100 µM	> 100 µM	> 100 µM	> 100 µM	> 100 µM	> 100 µM	> 100 µM	> 100 µM	> 100 µM		
Cc1ccc(Nn2c(SCC(=O)Nc3nc(-c4ccccc4)cs3)nc(C)c2C)cc1	17.4 µM	> 100 µM			3.62 µM	> 100 µM	8.24 µM	> 100 µM	2 µM	5.72 µM			18.9 µM	> 100 µM	2.66 µM	9.54 µM
CCCCCC/C=C\CCCCCCCCCc1cccc(OC)c1O		> 100 µM		> 100 µM		> 100 µM				> 100 µM				> 100 µM		> 100 µM
COc1cc2c3c(n(CCCN=[N+]=[N-])c(=O)c2cc1OC)-c1ccc(NC(C)=O)cc1C3=O	> 50 µM	> 50 µM	> 50 µM	> 50 µM	> 50 µM	> 50 µM	> 50 µM	> 50 µM	11.2 µM	> 50 µM	4.85 µM	> 50 µM	> 50 µM	> 50 µM	> 50 µM	> 50 µM
O=C1c2ccccc2-c2c1c1ccc([N+](=O)[O-])cc1c(=O)n2CCN1CCOCC1			20.1 µM	> 100 µM	> 100 µM	> 100 µM	> 100 µM	> 100 µM	> 100 µM	> 100 µM	15.5 µM	> 100 µM	> 100 µM	> 100 µM	> 100 µM	> 100 µM
Cn1c(=S)c2[nH]c(SCc3cccnc3)nc2n(C)c1=O		> 100 µM				> 100 µM		> 100 µM		> 100 µM		> 100 µM		> 100 µM		> 100 µM
COc1ccc(C(=O)c2cc(C)c(OC)c(C)c2)c(OC)c1OC(=O)C(Cl)Cl	1.74 µM	5.89 µM	0.0386 µM	> 100 µM	0.0336 µM	> 100 µM	0.0353 µM		0.0521 µM	0.326 µM	0.0181 µM	> 100 µM	17.2 µM	> 100 µM		
NC1=C(/C(N)=N/O)C(c2ccccc2)c2ccc3ccccc3c2O1 (stereo not given)	0.168 µM	0.72 µM	0.388 µM	> 62.8 µM	0.145 µM	> 100 µM	0.225 µM	0.675 µM	0.369 µM	9.79 µM	0.239 µM	> 100 µM	20.2 µM	> 100 µM		
COc1cc(NC(=O)c2cc3ccccc3cc2O)c(OC)cc1Cl	1.96 µM	5.04 µM	2.61 µM	> 20.5 µM	1.84 µM		1.41 µM	4.1 µM	1.38 µM	2.93 µM	2.02 µM	14.7 µM	3.64 µM	7.7 µM		
CCN(CC)CCOc1ccccc1-n1c(C)ccc1-c1ccccc1	14.5 µM	32 µM	18.7 µM	48.6 µM	10.7 µM	32 µM	15.6 µM	30.1 µM	12.8 µM	25.9 µM			14.5 µM	29.2 µM	14.4 µM	29.9 µM
CC(NNC(=S)N1CCN(c2ccccn2)CC1)c1cccc[n+]1[O-] (stereo not given)				20.5 µM				> 100 µM		34.8 µM		96.1 µM		> 100 µM		> 100 µM
CSc1ccc(NC(=O)CCl)cc1				> 10 µM		> 10 µM		> 10 µM		3.63 µM		> 10 µM		> 10 µM		> 10 µM
O=C(/C=C/c1cc(O)ccc1O)c1ccc(Cl)cc1					46.1 µM	> 100 µM	57.7 µM	> 100 µM	55 µM	> 100 µM			31.6 µM	> 100 µM	30 µM	> 100 µM
CCN1Cc2c(/C=C/c3ccccc3)nc3ccc(OC)cc3c2N(c2cccc(Cl)c2)C1	1.5 µM	3.86 µM	2.17 µM	5.84 µM			1.62 µM	3.08 µM	1.59 µM	3 µM	1.71 µM	5.53 µM	1.62 µM	3.43 µM	1.81 µM	3.7 µM
C=C(C)C1Cc2cc(C(C)=O)ccc2O1 (stereo not given)				> 100 µM		> 100 µM		> 100 µM		> 100 µM				> 100 µM		> 100 µM
COc1ccc(/C=C\c2cc(OC)c(OC)c(OC)c2)cc1N/C=C\C(=O)c1c[nH]c2ccccc12	< 0.01 µM	0.0153 µM	< 0.01 µM	> 100 µM	< 0.01 µM	> 100 µM	< 0.01 µM	< 0.01 µM	< 0.01 µM	0.0201 µM	< 0.01 µM	> 100 µM	40.2 µM	> 100 µM		
CCSc1nc(N)c(C#N)c(-c2ccc(OC)c(OC)c2)c1C#N	15.8 µM	40.7 µM			10.7 µM	27.7 µM	26 µM	> 50 µM	8.36 µM	29.5 µM	11.8 µM	37.6 µM	49.6 µM	> 50 µM	3.85 µM	22.5 µM
C=CC(=O)N1CCC(CNc2ncnc(N)c2-c2ccc(Oc3ccccc3)cc2)CC1	10.7 µM	31.9 µM	27.2 µM	> 100 µM	22.5 µM	> 100 µM	27.6 µM	85.1 µM	14.3 µM	27.6 µM			21.4 µM	> 100 µM	27.9 µM	97.5 µM
CCOc1cc(CCNC)c2c(ccc3ccc(OC)c(O)c32)c1OC				> 100 µM		> 100 µM		29.8 µM		26.1 µM		20.5 µM		32.7 µM		27.5 µM
COc1ccc2c3c1OC1C4(CCC5C(C2)N(CC2CC2)CCC351)OCCO4 (stereo not given)				> 100 µM		> 100 µM		> 100 µM		> 100 µM		> 100 µM		> 100 µM		> 100 µM
O=C(O)c1ccccc1C(=O)Nc1cc2c(cc1Br)-c1ccccc1C2=O		> 100 µM		> 100 µM		> 100 µM		> 100 µM		> 100 µM				> 100 µM		> 100 µM
Clc1ccc2c(NCCNc3nc(N4CCCCC4)nc4ccccc34)ccnc2c1	10.2 µM	22.1 µM	1.99 µM	45.4 µM			1.75 µM	3.65 µM	1.86 µM	3.31 µM	1.23 µM	4.53 µM	2.15 µM	5.13 µM	1.74 µM	3.43 µM
Nc1ncc(-c2ccc3ncnc(N4CCc5cc(F)c(Cl)cc54)c3c2)cc1C(F)(F)F			2.68 µM	> 100 µM	1.61 µM	> 100 µM	1.39 µM	> 100 µM			1.67 µM	> 100 µM				
COc1ccccc1CNC(=O)/C=C/c1ccc(O)c(O)c1	> 100 µM	> 100 µM	18.2 µM	> 100 µM	39.6 µM	> 100 µM	67.3 µM	> 100 µM	56.8 µM	> 100 µM			17.9 µM	> 100 µM	58.3 µM	> 100 µM
Nc1ccccc1-n1c2c(c3ccccc3c1=O)C(=O)c1ccccc1-2		> 100 µM		> 100 µM		> 100 µM		55.1 µM		> 100 µM						> 100 µM
Fc1cccc(-c2nc(-c3c[nH]c4ncccc34)cs2)c1			> 100 µM	> 100 µM	> 100 µM	> 100 µM	60.5 µM	> 100 µM	> 100 µM	> 100 µM	> 100 µM	> 100 µM	25.9 µM	> 100 µM	> 100 µM	> 100 µM
Cc1nc2sc(C(=O)Nc3cccc(Cl)c3C)c(N)c2cc1C(O)c1ccccc1 (stereo not given)	0.0158 µM	0.059 µM	0.0392 µM	> 100 µM	0.0302 µM	> 48.6 µM	0.0351 µM	1.14 µM	0.0528 µM	1.11 µM	0.021 µM	16.6 µM	2.04 µM	25.6 µM		
Cc1cc(O)cc(-c2nn(C)cc2-c2cc(N3CCOCC3)nc(-c3cccnc3)n2)c1	1.06 µM	3.24 µM	2.72 µM	33.9 µM	1.96 µM	> 100 µM	2.48 µM	12.5 µM	1.76 µM	6.89 µM	1.22 µM	> 100 µM	8.68 µM	95.3 µM		
O=CCC(O)C(O)C(O)CO (stereo not given)			> 100 µM	> 100 µM	> 100 µM	> 100 µM	> 100 µM	> 100 µM	> 100 µM	> 100 µM	> 100 µM	> 100 µM	> 100 µM	> 100 µM	> 100 µM	> 100 µM
CCSc1nnc(-c2ccc3ccccc3c2O)n1-c1ccccc1							> 100 µM	> 100 µM						> 100 µM		
